Results: US5684023A, “Benzofuranyl -and benzothienyloxazolidinones” (Bayer Aktiengesellschaft, priority 1994, dated 1997)
Values after ≈ are worked out from the molar mass of the structure shown.

Key:
Experiment in all cases: MIC, serial dilution (Iso-Sensitest agar / microdilution in BH medium)
Assay type in all cases: cell-based
Staph 25701 = details: 37° C., about 20 hours
Protocol: (§1) The minimum inhibitory concentrations (MIC) were determined by serial dilution methods on Iso-Sensitest agar (Oxoid). For each test substance, a number of agar plates were prepared which contained a decreasing concentration of the active compound on double dilution in each case. The agar plates were inoculated with a multipoint inoculator (Denley). For inoculation, overnight cultures of the bacilli were used which were previously diluted such that each inoculation point contained about 10^4 colony-forming particles. The inoculated agar plates were incubated at 37° C., and the bacterial growth was read off after about 20 hours. The MIC value (μg/ml) indicates the lowest active compound concentration at which no growth could be detected using the naked eye. The MIC values were determined in BH medium with the aid of the microdilution method. Each test substance was dissolved in the nutrient medium. A concentration series of the test substances was prepared in the microtiter plates by serial dilution. For inoculation, overnight cultures of the bacilli were used which had previously been diluted 1:250 in the nutrient medium. 100 μl each of inoculation solution were added to 100 μl of the diluted, active compound-containing nutrient solutions. The microtiter plates were incubated at 37° C. and read off after about 20 hours. The MIC value (μg/ml) indicates the lowest active compound concentration at which no growth could be detected.

Staph 9TV = details: 37° C., about 20 hours
Protocol: as §1

Staph. 133 = details: 37° C., about 20 hours
Protocol: as §1

Staph. 48N = details: 37° C., about 20 hours
Protocol: as §1

Psdm. Bonn = details: 37° C., about 20 hours
Protocol: as §1

Klebs. 57 USA = details: 37° C., about 20 hours
Protocol: as §1

E. coli Neumann = details: Escherichia coli, 37° C., about 20 hours
Protocol: as §1

Row | Compound | MIC (Staph 25701) [µg/mL] | MIC (Staph 9TV) [µg/mL] | MIC (Staph. 133) [µg/mL] | MIC (Staph. 48N) [µg/mL] | MIC (Psdm. Bonn) [µg/mL] | MIC (Klebs. 57 USA) [µg/mL] | MIC (E. coli Neumann) [µg/mL]
1 | CC(=O)NC[C@H]1CN(c2ccc3sccc3c2)C(=O)O1 [Example 9, (5S)-3-[5-Benzo[b]thiophenyl]5-acetylamino-methyl-oxazolidin-2-one] | 2 (≈ 6.89 µM) | 2 (≈ 6.89 µM) | 4 (≈ 13.8 µM) | 4 (≈ 13.8 µM) | > 64 | > 64 | > 64
2 | CC(=O)NC[C@H]1CN(c2ccc3c(c2)C=CS3(=O)=O)C(=O)O1 [Example 27] | 16 (≈ 49.6 µM) | 8 (≈ 24.8 µM) | 16 (≈ 49.6 µM) | 16 (≈ 49.6 µM) | > 64 | > 64 | > 64
3 | CC(=O)NC[C@H]1CN(c2ccc3oc(C)cc3c2)C(=O)O1 [Example 16] | 1 (≈ 3.47 µM) | 0.5 (≈ 1.73 µM) | 1 (≈ 3.47 µM) | 1 (≈ 3.47 µM) | > 64 | > 64 | > 64
